Results reported in patent publication US10874743B2, “IRAK degraders and uses thereof” (Kymera Therapeutics, Inc., priority 2017, dated 2020).

Assays:
IRAK4 [1] = biological target: T1, IRAK4 (Homo sapiens, UniProt Q9NWZ3); experiment: OCI-LY-10 MSD assay for IRAK4 DC50; assay type: cell-based; set-up: endogenous in cells; host or cells: OCI-LY10; settings: OCI-LY10 cells, 4 hr incubation, concentration required to degrade 50% of protein
T1 sequence (Q9NWZ3 1-460): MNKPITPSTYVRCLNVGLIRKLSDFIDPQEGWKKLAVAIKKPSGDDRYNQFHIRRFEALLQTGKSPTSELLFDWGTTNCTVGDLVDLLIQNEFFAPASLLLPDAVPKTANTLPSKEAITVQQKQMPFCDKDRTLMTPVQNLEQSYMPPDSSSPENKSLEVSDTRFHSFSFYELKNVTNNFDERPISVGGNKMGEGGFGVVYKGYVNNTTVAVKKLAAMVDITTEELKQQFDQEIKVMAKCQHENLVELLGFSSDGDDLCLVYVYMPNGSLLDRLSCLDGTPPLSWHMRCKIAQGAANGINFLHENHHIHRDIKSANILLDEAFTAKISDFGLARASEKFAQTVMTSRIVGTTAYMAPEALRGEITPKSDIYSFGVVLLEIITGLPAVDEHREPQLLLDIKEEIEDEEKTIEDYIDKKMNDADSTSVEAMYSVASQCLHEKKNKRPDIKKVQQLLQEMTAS
Procedure, shortened: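 IRAK4 level was quantified by MSD electrochemiluminescence (anti-IRAK4 capture antibody, rabbit anti-IRAK4 detection antibody) in RIPA lysates of OCI-Ly10 cells. Cells had been treated with compound for 4 hr (8-point, 3-fold serial dilution). Remaining protein versus concentration was fitted to a sigmoidal curve to give DC50.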

IRAK4 [2] = biological target: T1, IRAK4; experiment: OCI-LY-10 degradation assay (western blot, % IRAK4 degraded after 4 hours); assay type: cell-based; set-up: endogenous in cells; host or cells: OCI-LY10; settings: OCI-LY10 cells, 4 hours; for OCI-LY10 % IRAK4 Degradation (0.01 uM): 0.01 uM compound; for OCI-LY10 % IRAK4 Degradation (0.1 uM): 0.1 uM compound; for OCI-LY10 % IRAK4 Degradation (1 uM): 1 uM compound
Procedure, shortened: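 IRAK4 loss after 4 h at 37° C was scored A (>50%), B (>20-50%) or C (<20%) from infrared western blots of RIPA lysates, 20-25 μg protein per lane. Compound was applied at 0.003-10 μM final to OCI-LY10 cells cultured in RPMI-1640 with 20% FBS and 55 μM 2-ME.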

| DC50 (IRAK4 [1]) | OCI-LY10 % IRAK4 Degradation (0.01 uM) (IRAK4 [2]) | OCI-LY10 % IRAK4 Degradation (0.1 uM) (IRAK4 [2]) | OCI-LY10 % IRAK4 Degradation (1 uM) (IRAK4 [2]) | Compound |
| --- | --- | --- | --- | --- |
| < 0.05 µM | A (>50% degradation) | A (>50% degradation) | A (>50% degradation) | NC(=O)c1nn(-c2ccc(C(=O)NCC3CCCCN3CCOCCNc3cccc4c3C(=O)N(C3CCC(=O)NC3=O)C4=O)cc2)cc1NC(=O)c1coc(-c2ccnc(NCC(F)(F)F)c2)n1 (stereo not shown) [I-219] |
| < 0.05 µM | C (<20% degradation) | A (>50% degradation) | A (>50% degradation) | CN(CCOCCOCCCc1cccc2c1C(=O)N(C1CCC(=O)NC1=O)C2=O)C(=O)c1ccc(-n2cc(NC(=O)c3coc(-c4ccnc(NCC5CC5)c4)n3)c(C(F)F)n2)cc1 (stereo not shown) [I-225] |
| < 0.05 µM | A (>50% degradation) | A (>50% degradation) | A (>50% degradation) | CN(CCOCCOCCCc1ccc2c(c1)C(=O)N(C1CCC(=O)NC1=O)C2=O)C(=O)c1ccc(-n2cc(NC(=O)c3coc(-c4ccnc(NCC5CC5)c4)n3)c(C(N)=O)n2)cc1 (stereo not shown) [I-228] |
| 0.05 to 0.1 µM | C (<20% degradation) | A (>50% degradation) | A (>50% degradation) | NC(=O)c1nn(-c2ccc(C(=O)NCCOCCOCCOCCOCCCc3cccc4c3C(=O)N(C3CCC(=O)NC3=O)C4=O)cc2)cc1NC(=O)c1coc(-c2ccnc(NCC(F)(F)F)c2)n1 (stereo not shown) [I-235] |
| > 1 µM | B (>20-50% degradation) | B (>20-50% degradation) | B (>20-50% degradation) | NC(=O)c1nn(CCOCCOCCOCCOCCNc2cccc3c2C(=O)N(C2CCC(=O)NC2=O)C3=O)cc1NC(=O)c1coc(-c2ccnc(NCC3CC3)c2)n1 (stereo not shown) [I-240] |
| < 0.05 µM | B (>20-50% degradation) | A (>50% degradation) | A (>50% degradation) | Cc1cc(-c2nc(C(=O)Nc3cn(-c4ccc(C(=O)NCCOCCOCCNc5cccc6c5C(=O)N(C5CCC(=O)NC5=O)C6=O)cc4)nc3C(N)=O)co2)ccn1 (stereo not shown) [I-241] |
| < 0.05 µM | B (>20-50% degradation) | A (>50% degradation) | A (>50% degradation) | O=C1CCC(N2C(=O)c3cccc(NCCNCCCCCNC(=O)c4ccc(-n5cc(NC(=O)c6coc(-c7ccnc(NC8CC8)c7)n6)c(C(F)F)n5)cc4)c3C2=O)C(=O)N1 (stereo not shown) [I-242] |
| > 1 µM | C (<20% degradation) | B (>20-50% degradation) | C (<20% degradation) | O=C1CCC(N2C(=O)c3cccc(CCCCCN4CCC(n5cc(NC(=O)c6coc(-c7ccnc(NCC8CC8)c7)n6)c(C(F)F)n5)CC4)c3C2=O)C(=O)N1 (stereo not shown) [I-258] |
| 0.05 to 0.1 µM | C (<20% degradation) | A (>50% degradation) | B (>20-50% degradation) | O=C1CCC(N2C(=O)c3cccc(NC4CCN(CCOCCOCCNC(=O)c5ccc(-n6cc(NC(=O)c7coc(-c8ccnc(NCC9CC9)c8)n7)c(C(F)F)n6)cc5)CC4)c3C2=O)C(=O)N1 (stereo not shown) [I-267] |
| 0.1 to 0.5 µM |  |  |  | Cn1c(=O)n(C2CCC(=O)NC2=O)c2cccc(CCCOCCOCCNCc3ccc(-n4cc(NC(=O)c5cnn6ccc(N7CCNCC7)nc56)c(C(F)F)n4)cc3)c21 (stereo not shown) [I-446, N-[3-(difluoromethyl)-1-[4-[[2-[2-[3-[1-(2,6-dioxo-3-piperidyl)-3-methyl-2-oxo-benzimidazol-4-yl]propoxy]ethoxy]ethylamino]methyl]phenyl]pyrazol-4-yl]-5-piperazin-1-yl-pyrazolo[1,5-a]pyrimidine-3-carboxamide] |
| 0.5 to 1 µM |  |  |  | CN[C@@H](C)C(=O)N[C@H](C(=O)N1Cc2cc(OCCOCCOCCOCCNCc3ccc(-n4cc(NC(=O)c5coc(-c6ccnc(NCC7CC7)c6)n5)c(C(F)F)n4)cc3)ccc2C[C@H]1C(=O)N[C@@H]1CCCc2ccccc21)C(C)(C)C [I-681, 2-[2-(Cyclopropylmethylamino)-4-pyridyl]-N-[3-(difluoromethyl)-1-[4-[[2-[2-[2-[2-[[(3S)-2-[(2S)-3,3-dimethyl-2-[[(2S)-2-(methylamino)propanoyl]amino]butanoyl]-3-[[(1R)-tetralin-1-yl]carbamoyl]-3,4-dihydro-1H-isoquinolin-7-yl]oxy]ethoxy]ethoxy]ethoxy]ethylamino]methyl]phenyl]pyrazol-4-yl]oxazole-4-carboxamide] |

More lines, now with the values behind:

| Compound | DC50 (IRAK4 [1]) | OCI-LY10 % IRAK4 Degradation (0.01 uM) (IRAK4 [2]) | OCI-LY10 % IRAK4 Degradation (0.1 uM) (IRAK4 [2]) | OCI-LY10 % IRAK4 Degradation (1 uM) (IRAK4 [2]) |
| --- | --- | --- | --- | --- |
| CN(CCOCCOCCCc1cccc2c1C(=O)N(C1CCC(=O)NC1=O)C2=O)C(=O)c1ccc(-n2cc(NC(=O)c3coc(-c4ccnc(NCC5CC5)c4)n3)c(C(N)=O)n2)cc1 (stereo not shown) [I-224] | < 0.05 µM | B (>20-50% degradation) | A (>50% degradation) | A (>50% degradation) |
| CN(CCOCCOCCCc1ccc2c(c1)C(=O)N(C1CCC(=O)NC1=O)C2=O)C(=O)c1ccc(-n2cc(NC(=O)c3coc(-c4ccncc4)n3)c(C(N)=O)n2)cc1 (stereo not shown) [I-227] | < 0.05 µM | B (>20-50% degradation) | A (>50% degradation) | A (>50% degradation) |
| NC(=O)c1nn(-c2ccc(C(=O)NCCOCCOCCn3c(=O)n(C4CCC(=O)NC4=O)c4ccccc43)cc2)cc1NC(=O)c1coc(-c2ccnc(NCC(F)(F)F)c2)n1 (stereo not shown) [I-231] | < 0.05 µM | A (>50% degradation) | A (>50% degradation) | A (>50% degradation) |
| Cn1c(=O)n(C2CCC(=O)NC2=O)c2ccc(CCCOCCOCCNC(=O)c3ccc(-n4cc(NC(=O)c5coc(-c6ccnc(NCC7CC7)c6)n5)c(C(F)F)n4)cc3)cc21 (stereo not shown) [I-252] | < 0.05 µM | B (>20-50% degradation) | A (>50% degradation) | A (>50% degradation) |
| O=C1CCC(N2C(=O)c3cccc(CCCNC(=O)c4ccc(-n5cc(NC(=O)c6coc(-c7ccncc7)n6)c(C(F)F)n5)cc4)c3C2=O)C(=O)N1 (stereo not shown) [I-255] | > 1 µM | C (<20% degradation) | C (<20% degradation) | C (<20% degradation) |
| O=C1CCC(N2C(=O)c3ccc(CCOCCN4CCC(n5cc(NC(=O)c6coc(-c7ccnc(NCC8CC8)c7)n6)c(C(F)F)n5)CC4)cc3C2=O)C(=O)N1 (stereo not shown) [I-262] | > 1 µM | C (<20% degradation) | B (>20-50% degradation) | B (>20-50% degradation) |
| O=C1CCC(n2c(=O)oc3c(CCCOCCOCCNC(=O)c4ccc(-n5cc(NC(=O)c6coc(-c7ccnc(NCC8CC8)c7)n6)c(C(F)F)n5)cc4)cccc32)C(=O)N1 (stereo not shown) [I-265] | < 0.05 µM | B (>20-50% degradation) | A (>50% degradation) | A (>50% degradation) |
| NC(=O)c1nn(-c2ccc(C(=O)NCCOCCOCCCc3cccc4c3oc(=O)n4C3CCC(=O)NC3=O)cc2)cc1NC(=O)c1coc(-c2ccnc(NCC(F)(F)F)c2)n1 (stereo not shown) [I-266] | < 0.05 µM | C (<20% degradation) | A (>50% degradation) | A (>50% degradation) |
| Cn1c(=O)n(C2CCC(=O)NC2=O)c2ccc(CCCCOCCCCNC(=O)c3ccc(-n4cc(NC(=O)c5cnn6ccc(N7CCNCC7)nc56)c(C(F)F)n4)cc3)cc21 (stereo not shown) [I-445, N-[3-(difluoromethyl)-1-[4-[4-[4-[1-(2,6-dioxo-3-piperidyl)-3-methyl-2-oxo-benzimidazol-5-yl]butoxylbutyl]carbamoyl]phenyl]pyrazol-4-yl]-5-piperazin-1-yl-pyrazolo[1,5-a]pyrimidine-3-carboxamide] | 0.05 to 0.1 µM |  |  |  |
| Cn1c(=O)n(C2CCC(=O)NC2=O)c2ccc(CCCOCCOCCOCCOCC(=O)N3CCN(C4CCC(Nc5ncnc6[nH]cc(C7CCOCC7)c56)CC4)CC3)cc21 (stereo not shown) [I-447, 3-[3-Methyl-2-oxo-5-[3-[2-[2-[2-[2-oxo-2-[4-[4-[(5-tetrahydropyran-4-yl-7H-pyrrolo[2,3-d]pyrimidin-4-yl)amino]cyclohexyl]piperazin-1-yl]ethoxy]ethoxy]ethoxy]ethoxy]propyl]benzimidazol-1-yl]piperidine-2,6-dione] | 0.05 to 0.1 µM |  |  |  |
| CN[C@@H](C)C(=O)N[C@H](C(=O)N1CCC[C@H]1c1nc(C(=O)c2cccc(OCCOCCOCCOCCNCc3ccc(-n4cc(NC(=O)c5coc(-c6ccnc(NCC7CC7)c6)n5)c(C(F)F)n4)cc3)c2)cs1)C1CCCCC1 [I-554] | > 1 µM |  |  |  |
